Patent US20130029367A1, “COMPOSITIONS AND METHODS FOR MONITORING BREAST CANCER TREATMENT” (Board of Trustees of the University of Arkansas, priority 2003, published 2013)

Legend:
9.29 kDa protein = test: SELDI-MS of serum proteins in breast cancer patients on radiation therapy and oral glutamine (AES-14); format: in vivo, human
From the text: Sixteen breast cancer patients treated with radiation therapy were randomized to receive oral supplemental glutamine (AES-14) or a placebo. Ten of the sixteen women received AES-14 (30 g glutamine per day, approximately 0.5 g glutamine/kg/day) from one week prior to initiating radiation therapy (5,000 cGy) until one week after completing radiation therapy. Six patients received placebo. Serum was collected from each patient before beginning glutamine supplementation (Baseline), at two and four weeks after initiating glutamine supplementation, and one week after stopping glutamine supplementation (Post Treatment in FIG. 1).
Serum proteins from each sample were analyzed by SELDI-MS. Briefly, serum proteins were adhered to the solid substrate of a SELDI chip. The proteins were then desorbed by surface enhanced laser desorption in a SELDI-MS apparatus, and analyzed by mass spectrometry.
SELDI-MS was performed using a Ciphergen (Freemont, Calif.) SELDI PDSII instrument. […] The mass:charge ratio (m/z) of each protein was determined according to a variety of externally calibrated peptide and protein standards. […]
The SELDI-MS procedure analyzed proteins over the m/z ratio ranges of 2-20 and 20-100 kDa.

[1] = system: radiation injury to normal breast tissue in BCT patients; test: Phase III pilot study: oral AES-14 vs placebo for radiation injury to the breast in BCT patients; format: in vivo, human; settings: at 2 year follow-up
Experimental: This theory was tested in two parts. […] A Phase III pilot study in which 17 patients were randomized to oral AES-14 (30 gm GLN/day, approximately 0.5 gm GLN/kg/day) or placebo from one week prior until one week after radiation therapy (5,000 cGy) was performed. Patients were followed weekly for 7 weeks and every 3 months for 2 years for acute and chronic radiation injury using the RTOG scales, skin biopsy at 0 and 7 weeks, GLN and GSH levels, US, mammogram density, lymphedema, quality of life and performance status.
The RTOG acute radiation morbidity scoring criteria for skin ranges from 0 (no change) to 4 (necrosis). A score of 2 (moist desquamation) was considered failure of treatment. Patients receiving oral AES-14 scored an average of 0.9±0.2, SEM compared to 1.4±0.2 in the placebo group. All patients in the placebo group reached a score of 2 or greater during the first 7 weeks. Two of 8 placebo patients required radiation therapy delay. […] Only 4 of 9 patients in the AES-14 group scored a high of 2, none a 3 (p=0.03 AES-14 vs. placebo, Fisher Exact). At 12 months, 4 of 8 patients in the placebo group complained of pain for which 3 required narcotics, 6 of 8 had significant edema, and 4 of 8 marked increased density and firmness of the radiated breast. […]

[2] = system: human gastrointestinal epithelial cell line (CaCo); test: Cellular uptake of glutamine in CaCo cells (HPLC detection at 340 nm); format: in vitro ADME
Experimental: Distilled, deionized water (107 ml) was added to 207 grams of a dry mixture of sucrose, sorbitol, and glutamine with excipients (Aesgen-14) as listed in Table 1.
Both samples were allowed to stand for 1 day at room temperature. The supernatant was decanted from the residue and used for the cellular uptake determination.
On Day 1, cells from a human gastrointestinal epithelial cell line (CaCo) were plated at a density of 0.5×10^6 cells per well in a 6-well tissue culture dish.
At time points 0, 10, 20, 40, and 60 seconds, the test material was aspirated and the cells washed three times (3×) with chilled (4EC) phosphate buffered saline (PBS), followed by the addition of 1.0 ml of perchloric acid. Cells were harvested by scraping, then aspirated by pipet into a 1.7 ml tube.
The harvested cells were sonicated for 10 seconds, and 500:1 of sonicated cells were transferred into a 1.7 ml tube. The perchloric acid was neutralized by the addition of 130:1 of 2M KHCO3, and the resulting mixture was frozen overnight at −80EC.
Upon thawing, the sample was centrifuged for 10 minutes at 14,000 rpm and the supernatants were transferred to new 1.7 ml tubes and frozen at −80EC. The resulting clarified samples were thawed and diluted 1:3 with deionized water. Fifty microliters were withdrawn, added to 10 microliters complete o-phthaldialdehyde (Sigma P-0532), and mixed by agitation. After incubation for two minutes at room temperature, a 20:1 sample was injected on a Hypersil® C18 Elite 5:m HPLC column using 70:30 acetonitrile:water as the mobile phase. Glutamine levels, measured as :g/ml, were detected at 340 nm.

mean cellular glutamine uptake ([2]; normal cells, incubation time 0 seconds): 3.53 :g/ml
mean cellular glutamine uptake ([2]; normal cells, incubation time 10 seconds): 10.30 :g/ml
mean cellular glutamine uptake ([2]; normal cells, incubation time 20 seconds): 2.48 :g/ml
mean cellular glutamine uptake ([2]; normal cells, incubation time 40 seconds): 3.23 :g/ml
mean cellular glutamine uptake ([2]; normal cells, incubation time 60 seconds): 4.85 :g/ml
mean cellular glutamine uptake ([2]; starved cells (L-glutamine deficient medium), incubation time 0 seconds): 1.33 :g/ml
mean cellular glutamine uptake ([2]; starved cells (L-glutamine deficient medium), incubation time 10 seconds): 1.43 :g/ml
mean cellular glutamine uptake ([2]; starved cells (L-glutamine deficient medium), incubation time 20 seconds): 1.49 :g/ml
mean cellular glutamine uptake ([2]; starved cells (L-glutamine deficient medium), incubation time 40 seconds): 2.23 :g/ml
mean cellular glutamine uptake ([2]; starved cells (L-glutamine deficient medium), incubation time 60 seconds): 49.96 :g/ml
Structure (SMILES): NC(=O)CC[C@H](N)C(=O)O [L-glutamine]
increase in amount of the 9.29 kDa protein (9.29 kDa protein; first two weeks of glutamine supplementation and radiation therapy): approximately 3 fold
amount of the 9.29 kDa protein after discontinuation (9.29 kDa protein; within one week following discontinuation of glutamine): returned to near the baseline value
patients with local recurrence [1]: none
